# Key:
# A2780 cells [1] = assay: Annexin V/propidium iodide cell death assay, flow cytometry; format: cell-based, human; conditions: 24 h; for Annexin V +/PI + cells (late apoptotic/secondary necrotic) / Annexin V +/PI − cells (early apoptotic): A2780, 15 µM, mean of three experiments
# Description: Both methods were performed according to the manufacturers’ protocols with 1 modification in the caspase induction assay, which was the use of the CellEvent^TM Caspase-3/7 Green Detection Reagent only for detection of Caspase-3/7 activation. […] After 24 h, the cells were washed once with PBS (0.1 M, pH 7.4), detached with trypsin (0.25% in ethylenediaminetetraacetic acid (EDTA), Sigma-Aldrich), resuspended in 500 µL of the culture medium and divided into 2 separate tubes, the first for apoptosis assay and the second one for caspase activation analysis. After staining with appropriate dyes, samples were analyzed on a BD FACSVerse flow cytometer (Becton Dickinson, Franklin Lakes, NJ, USA) in 3 separate experiments, while at least 10^4 events were recorded for each sample prepared in duplicate.
# A2780 cells [2] = assay: cell cycle analysis by flow cytometry; format: cell-based, human; conditions: A2780, 15 µM, 24 h
# Description: Human ovarian cancer cell line A2780 (Sigma, Darmstadt, Germany) were used for this study. Cells were cultivated at 37 °C under a 5% CO2 atmosphere in an RPMI 1640 medium (Sigma Aldrich, Darmstadt, Germany) supplemented with (the final concentrations in medium): L-glutamine (2 mM), fetal bovine serum (FBS, 10%) and PenStrep (5 U penicillin, 50 µg streptomycin/mL).
# After 24 h, the cells were washed once with PBS (0.1 M, pH 7.4) and cell cycle analysis was performed according to the protocol of BD Cycletest^TM Plus DNA kit (Becton Dickinson, Franklin Lakes, NJ, USA). Measurements were performed using BD FACSVerse flow cytometer (Becton Dickinson, Franklin Lakes, NJ, USA) in 3 independent experiments, each done in duplicate, while at least 5 × 10^3 events were recorded for each sample.
# [3] = test system: primary culture of human hepatocytes (Hep); assay: toxicity against primary culture of human hepatocytes; format: cell-based; conditions: tested range 0.1–100 μM
# pUC19 plasmid DNA = assay: nuclease-like activity, plasmid DNA cleavage; format: biochemical; conditions: for plasmid DNA nicked to OC-form: 10 µM; for cleavage of plasmid DNA: 300 µM; for DNA cleavage in the presence of ROS scavengers (KI, NaN3, DMSO): 0.66 mM H2O2, scavengers equimolar to complex; for effectivity of plasmid DNA cleavage with H2O2: order 2 ≈ 4 > 1
# osteosarcoma (HOS) = assay: in vitro cytotoxicity, MTT assay; format: cell-based, human; conditions: mean ± SD, at least three independent experiments
# [4] = test system: cisplatin-resistant ovarian carcinoma (A2780R); assay: in vitro cytotoxicity, MTT assay; format: cell-based, human; conditions: mean ± SD, at least three independent experiments
# Description: (§1) The testing was performed on the following human cancer cell lines: breast adenocarcinoma (MCF-7), osteosarcoma (HOS), lung adenocarcinoma (A549), prostate adenocarcinoma (PC-3), ovarian carcinoma (A2780), cisplatin-resistant ovarian carcinoma (A2780R) and colorectal adenocarcinoma (Caco-2) obtained from ATCC collection of cell lines and cultivated according to producer’s instructions.
# [5] = test system: prostate adenocarcinoma (PC-3); assay: in vitro cytotoxicity, MTT assay; format: cell-based, human; conditions: mean ± SD, at least three independent experiments
# Description: as §1
# [6] = test system: breast adenocarcinoma (MCF-7); assay: in vitro cytotoxicity, MTT assay; format: cell-based, human; conditions: at least three independent experiments
# Description: as §1
# [7] = test system: lung adenocarcinoma (A549); assay: in vitro cytotoxicity, MTT assay; format: cell-based, human; conditions: at least three independent experiments
# Description: as §1
# [8] = test system: ovarian carcinoma (A2780); assay: in vitro cytotoxicity, MTT assay; format: cell-based, human; conditions: at least three independent experiments
# Description: as §1
# [9] = test system: THP-1 human monocytic leukemia cell line; assay: relative cell viability, WST-1; format: cell-based; conditions: 24 h, six independent experiments
# Description: The THP-1 human monocytic leukemia cell line was purchased from the European Collection of Cell Cultures (ECACC, Salisbury, UK). Cells were cultured in an RPMI 1640 medium containing stabilized 2 mM L-glutamine (Biosera, Nuaille, France) supplemented with the mixture of antibiotics [100 U/mL penicillin and […] (Biosera, Nuaille, France)], and 10% foetal bovine serum (FBS) (HyClone, Marlborough, MA, USA). The cells were kept in an incubator at 37 °C in an atmosphere of air containing 5% CO2 and 100% humidity.
# The relative cell viability of floating monocytes THP-1 were determined after 24 h incubation in a serum-free medium with compounds 1–5 dissolved in N,N-dimethylformamide (DMF) at increasing concentrations (20–0.125 µM) by the cell proliferation reagent WST-1 (Roche, Basel, Switzerland) according to the manufacturer’s manual, as we described previously. The IC50 values were calculated from resultant viability curves by four-parameter logistic (4PL) analysis.
# THP-1 cells = assay: intracellular production of reactive oxygen species, DCFH2-DA; format: cell-based, human; conditions: THP-1, 200 nM; for ROS production, long term: 23.5 h, pyocyanin 100 μM as radical-forming control; for increase of total ROS levels: 1.5 h experiment
# Description: THP-1 cells were used for the determination of the potential of tested compounds to initiate the intracellular ROS production, as was described previously with some minor modifications. Cells in serum-free RPMI 1640 medium without phenol red were seeded into black 96-well plates (5 × 10^4 cells/100 µL/well). After 2 h of incubation, the cells were treated with copper(II) complexes 1–5 at a concentration of 200 nM, and pyocyanin at a final concentration of 100 μM was added into control group to trigger production of reactive oxygen species (ROS), respectively. After the incubation at 37 °C for either 1.5 h or 23.5 h, dichlorofluorescin diacetate (DCFH2-DA) (5 μg/mL) was added and cells were kept under the same conditions hereafter. Thirty minutes later, fluorometric measurement of the fluorescent product DCF was conducted using a Tecan Infinite F200 microplate reader (Tecan, Männedorf, Switzerland) with λ(ex./em.) = 485/520 nm.
# A2780 cells [10] = assay: mitochondrial membrane potential, MITO-ID flow cytometry; format: cell-based, human; conditions: A2780, 15 µM, 24 h; compared with cisplatin
# Description: After 24 h, the cells were washed once with PBS (0.1 M, pH 7.4), detached with trypsin (0.25% in ethylenediaminetetraacetic acid (EDTA), Sigma-Aldrich), and resuspended in 500 µL of culture medium. Then the staining was performed using MITO-ID® Membrane potential detection kit (Enzo Life Sciences, Farmingdale, NY, USA) according to the manufacturer’s protocol and samples were measured in three independent experiments, each time in duplicates on BD FACSVerse flow cytometer (Becton Dickinson, Franklin Lakes, NJ, USA), while at least 10^4 events were recorded for each sample.
# [11] = water-containing medium (10% DMF), 37 °C, 1 h
Compound,Annexin V +/PI + cells (late apoptotic/secondary necrotic) (A2780 cells [1]) [%],Annexin V +/PI − cells (early apoptotic) (A2780 cells [1]) [%],"ROS production, long term (THP-1 cells)",damage of mitochondrial function (membrane potential) (A2780 cells [10]),IC50 [3] [µM],plasmid DNA nicked to OC-form (pUC19 plasmid DNA; [11]),cleavage of plasmid DNA (pUC19 plasmid DNA; [11]),"DNA cleavage in the presence of ROS scavengers (KI, NaN3, DMSO) (pUC19 plasmid DNA)",effectivity of plasmid DNA cleavage with H2O2 (pUC19 plasmid DNA; 0.66 mM H2O2),IC50 [4] [µM],IC50 [5] [µM],IC50 ([6]; mean ± SD) [µM],IC50 ([7]; mean ± SD) [µM],IC50 ([8]; mean ± SD) [µM],IC50 ([9]; serum-free medium) [µM],increase of total ROS levels (THP-1 cells) [%],IC50 (osteosarcoma (HOS)) [µM],other results
"CC(C)=CCc1c2c(c3occ(-c4ccc(O)c(O)c4)c(=O)c3c1O)C=CC(C)(C)O2 [pomiferin, 3-(3,4-dihydroxyphenyl)-5-hydroxy-8,8-dimethyl-6-(3-methylbut-2-ene-1-yl)-4H,8H-benzo[1,2-b:3,4-b′]dipyran-4-one]",49.0 ± 1.9,10.0 ± 0.1,did not increase the amount of ROS,strong ability,,,,,,,,,,,,,,"viability at 15 µM (A2780 cells [1]; Homo sapiens, A2780, 15 μM, Figure 3, one out of three independent experiments, read-out: Annexin - / PI - (viable cells)): 37.1%; cells in the S phase of the cell cycle (A2780 cells [2]; untreated control 21.4 ± 0.8%): 26 ± 0.9%; IC50 ([3]; Hepatocyte): > 50 µM; lowering of the portion of OC-form formed after addition of hydrogen peroxide (pUC19 plasmid DNA; 0.66 mM H2O2): ca. 20%; effect on supercoiled CCC-form of plasmid DNA (pUC19 plasmid DNA; [11]): did not affect; IC50 (osteosarcoma (HOS); Homo sapiens): 20.7 ± 0.5 µM; IC50 ([4]; Homo sapiens): 4.3 ± 1.3 µM; IC50 ([5]; Homo sapiens): 18.5 ± 0.7 µM; IC50 ([6]; Homo sapiens, MCF7, mean ± SD): 22 ± 0.1 µM; IC50 ([7]; Homo sapiens, A549, mean ± SD): 21.2 ± 1.4 µM; IC50 ([8]; Homo sapiens, A2780, mean ± SD): 8.4 ± 2 µM; IC50 ([9]; Homo sapiens, THP-1, serum-free medium): > 10 µM; ROS production, short term (THP-1 cells; 1.5 h): did not increase the amount of ROS"
"CC(C)=CCc1c2c(c3occ(-c4ccc(O)c(O)c4)c(=O)c3c1[O-])C=CC(C)(C)O2.CO.O=[N+]([O-])[O-].[Cu+2].c1ccc(-c2ccnc3c2ccc2c(-c4ccccc4)ccnc23)cc1 [Complex 4, (3-(3,4-dihydroxyphenyl)-8,8-dimethyl-6-(3-methylbut-2-en-1-yl)-4H,8H-benzo[1,2-b:3,4-b′]dipyran-4-one-5-olato-κ^2O4:O5)(4,7-diphenyl-1,10-phenanthroline–κ^2N:N)copper(II) nitrate methanol solvate]",93.3 ± 2.9,,pro-oxidant effect almost diminished,strong ability,> 100,ca. 30%,cleave the DNA completely to small fragments,not affected by the addition of the ROS scavengers,comparable with the effectivity of copper sulphate pentahydrate,6.6 ± 2.3,13 ± 1.1,16 ± 1.1,8.7 ± 0.8,12.8 ± 3.1,3.3 ± 1.2,87,,cells in G0/G1 phase (A2780 cells [2]; control 58.4 ± 0.5%): 62.1 ± 1.2%
"(3-(3,4-dihydroxyphenyl)-8,8-dimethyl-6-(3-methylbut-2-en-1-yl)-4H,8H-benzo[1,2-b:3,4-b′]dipyran-4-one-5-olato-κ^2O4:O5)(dipyrido[3,2-a:2′,3′-c]phenazine–κ^2N4:N5)copper(II) nitrate methanol solvate [Complex 5]",,,elevated the ROS levels similarly as pyocyanin,,> 100,,,,,2.2 ± 0.5,3.3 ± 0.1,3 ± 0.5,3.1 ± 0.2,2.5 ± 0.9,3.1 ± 1.1,,2.4 ± 0.9,
"CC(C)=CCc1c2c(c3occ(-c4ccc(O)c(O)c4)c(=O)c3c1[O-])C=CC(C)(C)O2.Cc1ccnc(-c2cc(C)ccn2)c1.O.O.O=[N+]([O-])[O-].[Cu+2] [Complex 2, (3-(3,4-dihydroxyphenyl)-8,8-dimethyl-6-(3-methylbut-2-en-1-yl)-4H,8H-benzo[1,2-b:3,4-b′]dipyran-4-one-5-olato-κ^2O4:O5)(4,4′-dimethyl-2,2′-bipyridine–κ^2N:N)copper(II) nitrate dihydrate]",19.8 ± 0.7,9.2 ± 0.8,pro-oxidant effect almost diminished,strong ability,> 100,ca. 30%,cleave the DNA completely to small fragments,not affected by the addition of the ROS scavengers,comparable with the effectivity of copper sulphate pentahydrate,5.3 ± 1.1,> 50,29.6 ± 2,20.9 ± 0.9,5.4 ± 2.4,7.9 ± 1.1,55,21.1 ± 1.6,cells in G2/M phase (A2780 cells [2]; control 20.1 ± 0.4%): 21.9 ± 0.8%

# Source: article PMC8305652, “Copper(II) Complexes Containing Natural Flavonoid Pomiferin Show Considerable In Vitro Cytotoxicity and Anti-inflammatory Effects” (International Journal of Molecular Sciences, 2021)
